From US6911537B2, “Xenobiotic compound modulated expression systems and uses therefor” (The Salk Institute for Biological Studies, priority 1998, dated 2005)
Entries after “also recorded” stand apart in the source; their conditions may differ. Read-outs that look alike come from different tables or passages of the source.

Columns and labels:
SXR [1] = target: T1, SXR (Homo sapiens, UniProt O75469); experiment: Transfection-based reporter assay in CV-1 cells, GAL4-SXR or full-length SXR; parameters: Activation of SXR response elements (DR-3, DR-4, DR-5) by full-length SXR: dose or concentration left out as unconfirmed; settings: for Activation of SXR response elements (DR-3, DR-4, DR-5) by full-length SXR: cotransfection, panel of steroids as printed (FIG. 4); for Activation of SXR in transfection-based assays: GAL4-SXR LBD chimera or full-length SXR, CV-1 cells, steroids at high doses, up to 50 mM [sic]; for Activation of human SXR by compounds known to induce CYP3A4: 50 μM, tamoxifen 5 μM (FIG. 7A)
T1 sequence (O75469 1-434): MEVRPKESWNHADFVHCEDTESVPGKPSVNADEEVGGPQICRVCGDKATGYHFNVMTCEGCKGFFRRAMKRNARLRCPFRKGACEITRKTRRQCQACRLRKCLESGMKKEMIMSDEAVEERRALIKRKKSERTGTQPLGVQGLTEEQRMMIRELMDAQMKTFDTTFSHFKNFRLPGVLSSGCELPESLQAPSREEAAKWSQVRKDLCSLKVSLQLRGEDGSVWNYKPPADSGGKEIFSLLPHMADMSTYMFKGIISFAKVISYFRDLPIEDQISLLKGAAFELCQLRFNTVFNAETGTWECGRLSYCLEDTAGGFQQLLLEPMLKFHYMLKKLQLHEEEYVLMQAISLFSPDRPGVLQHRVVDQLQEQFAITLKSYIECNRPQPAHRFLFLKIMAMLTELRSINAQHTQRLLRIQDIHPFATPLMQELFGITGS
T1 sequence (P19793 1-462 partner): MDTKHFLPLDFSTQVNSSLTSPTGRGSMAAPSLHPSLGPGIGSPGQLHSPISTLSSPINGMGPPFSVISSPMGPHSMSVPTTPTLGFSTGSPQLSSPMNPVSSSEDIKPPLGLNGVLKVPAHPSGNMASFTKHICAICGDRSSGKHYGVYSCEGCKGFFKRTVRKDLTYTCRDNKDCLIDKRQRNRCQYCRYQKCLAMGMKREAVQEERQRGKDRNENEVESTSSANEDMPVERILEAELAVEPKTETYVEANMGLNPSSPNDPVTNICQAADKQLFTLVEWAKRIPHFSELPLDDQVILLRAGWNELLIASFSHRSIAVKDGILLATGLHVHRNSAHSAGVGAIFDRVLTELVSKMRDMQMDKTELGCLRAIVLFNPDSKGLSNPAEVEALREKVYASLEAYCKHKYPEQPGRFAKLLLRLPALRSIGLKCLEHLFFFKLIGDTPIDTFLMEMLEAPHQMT

SXR [2] = target: T2, SXR (Homo sapiens, UniProt O75469)
T2 sequence (O75469 1-434): T1 sequence (O75469 1-434)
Description: (§1) The PCR-amplified sequences and target mutagenesis were confirmed by DNA sequencing.
(§2) All compounds were purchased from Sigma.
(§3) A panel of natural and synthetic steroid and nonsteroid compounds were tested for their ability to activate SXR and/or PXR in transfection-based assays using primary rat hepatocytes as recipient cells and the cellular promoters of the rat CYP3A23 gene or the human CYP3A4 gene as reporters.

endogenous PXR = target: T3, endogenous PXR (Rattus norvegicus, UniProt Q9R1A7); settings: hepatocytes
T3 sequence (Q9R1A7 1-431): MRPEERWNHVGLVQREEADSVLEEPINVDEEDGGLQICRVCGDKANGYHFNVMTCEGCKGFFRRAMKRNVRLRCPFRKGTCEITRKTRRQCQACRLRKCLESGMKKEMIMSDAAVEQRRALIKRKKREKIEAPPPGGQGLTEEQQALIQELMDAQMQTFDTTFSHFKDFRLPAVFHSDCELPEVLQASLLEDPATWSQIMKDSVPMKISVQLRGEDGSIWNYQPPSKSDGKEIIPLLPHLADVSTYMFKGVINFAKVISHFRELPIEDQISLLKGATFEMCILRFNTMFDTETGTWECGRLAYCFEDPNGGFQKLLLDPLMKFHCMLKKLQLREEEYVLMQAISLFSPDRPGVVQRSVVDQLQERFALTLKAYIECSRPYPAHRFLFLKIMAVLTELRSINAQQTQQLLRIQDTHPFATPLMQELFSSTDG
Description: as §1, §2, §3

SXR [3] = target: T1, SXR; remark: listed apart in the source
hGRα = target: T4, hGRα (Homo sapiens, UniProt P04150); experiment: Activation of hGRα on MTV-luc; type: cell-based; settings: 50 μM (FIG. 7D; 50 mM in FIG. 5 legend)
T4 construct: expressed in transfected cells
T4 sequence (P04150 1-777): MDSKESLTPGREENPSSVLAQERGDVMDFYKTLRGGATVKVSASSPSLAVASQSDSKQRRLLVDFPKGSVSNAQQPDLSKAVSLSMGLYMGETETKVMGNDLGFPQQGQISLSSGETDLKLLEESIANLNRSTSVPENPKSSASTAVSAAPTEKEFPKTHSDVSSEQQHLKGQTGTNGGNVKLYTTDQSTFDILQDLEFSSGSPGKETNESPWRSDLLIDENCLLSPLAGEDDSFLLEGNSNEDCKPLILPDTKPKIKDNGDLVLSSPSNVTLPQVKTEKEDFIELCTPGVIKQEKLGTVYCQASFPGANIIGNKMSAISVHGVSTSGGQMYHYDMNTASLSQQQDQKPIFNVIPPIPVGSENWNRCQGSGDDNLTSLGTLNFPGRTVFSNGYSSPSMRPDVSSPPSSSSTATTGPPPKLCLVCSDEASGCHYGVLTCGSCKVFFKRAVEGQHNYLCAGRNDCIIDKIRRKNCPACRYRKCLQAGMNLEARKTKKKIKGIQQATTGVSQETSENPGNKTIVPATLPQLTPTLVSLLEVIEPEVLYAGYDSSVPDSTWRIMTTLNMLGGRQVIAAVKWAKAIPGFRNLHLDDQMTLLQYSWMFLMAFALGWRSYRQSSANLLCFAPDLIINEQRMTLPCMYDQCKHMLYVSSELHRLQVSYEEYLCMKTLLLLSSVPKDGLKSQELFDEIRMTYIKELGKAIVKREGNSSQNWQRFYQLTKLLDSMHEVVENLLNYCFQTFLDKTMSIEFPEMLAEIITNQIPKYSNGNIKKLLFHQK
Description: FIG. 5 further illustrates the broad ligand specificity of SXR. […] 6β-hydroxylated, non-reduced, 5α and 5β reduced forms of corticosterone were tested for their ability to activate GAL-SXR on tk(MH100)4-luc and hGRa on MTV-luc at […].
6β-hydroxylated, non-reduced, 5α and 5β reduced forms of corticosterone were tested for their ability to activate GAL-hSXR on tk(MH100)4-luc (lefthand group of 5 columns) and hGRα on MTV-luc at 50 μM (righthand group of 5 columns). […] In each group of columns: column 1=solvent; column 2=corticosterone; column 3=5α-tetrahydrocorticosterone; column 4=5β-tetrahydrocorticosterone; and column 5=6β-OH-corticosterone.

CYP3A11 gene = settings: single dose 24 h before sacrifice
Description: The animals were allowed free access to food and water at all times. […] When necessary, mice were treated with a single intraperitoneal injection of DEX (50 mg/kg), PCN (40 mg/kg), or CTZ (50 mg/kg).
To detect specific transcripts, [^32P]-cDNA probes labeled by Random Primer Labeling Kit (Boringher) were hybridized to the membranes. The probe used to detect transgene contains both the SXR cDNA and the SV40 sequences. […] The filters were subsequently stripped and rehybridized with a murine glyceraldehyde-3-phosphate dehydrogenase (GAPDH) cDNA probe for RNA loading normalization.
Tissues were harvested 24 h later and subjected to Northern blot analysis.

For `C[C@]12CCC(=O)C=C1CC[C@@H]1[C@@H]2C(=O)C[C@@]2(C)[C@H]1CC[C@]2(O)C(=O)CO` [cortisone], the “Activation of SXR response elements (DR-3, DR-4, DR-5) by full-length SXR” value (“Activation of SXR response elements” below) (SXR [1]) was “intermediate activators; also recorded: intermediate group”.
For estrogen, the “Activation of SXR in transfection-based assays” value (SXR [1]) was “activated”.
`CCC1(c2ccccc2)C(=O)NC(=O)NC1=O` [phenobarbital] was tested, and the “Induction of CYP3A23 promoter reporter with co-transfection of SXR” value (SXR [2]) was “significant induction” and the “Activation of CYP3A23 promoter reporter in the absence of SXR” value (from here on “Activation … in the absence of SXR”) (endogenous PXR) was “fail to activate or behave as poor activators”.
With `Cc1ccc2cc3c(ccc4ccccc43)c3c2c1CC3` [3MC, 3-methylcholanthrene] the “Activation … in the absence of SXR” value (endogenous PXR) was “fail to activate or behave as poor activators”.
In the case of `C[C@]12CCC(O)C[C@H]1CC[C@@H]1[C@@H]2[C@@H](O)C[C@]2(C)[C@@H](C(=O)CO)CC[C@@H]12` (stereo partly drawn) [5β, 5β-tetrahydrocorticosterone], the “Activation of GAL-SXR on tk(MH100)4-luc by corticosterone derivatives” value (SXR [3]) is reported as “effective SXR activators” and the “Activation of hGRα on MTV-luc by corticosterone derivatives” value (“Activation of hGRα on MTV-luc” for short) (hGRα) is reported as “completely inactive”.
With `C[C@]12CCC(=O)C=C1CC[C@@H]1[C@@H]2[C@@H](O)C[C@]2(C=O)[C@@H](C(=O)CO)CC[C@@H]12` [aldosterone] the “Activation of SXR in transfection-based assays” value (SXR [1]) was “inactive” and the “Activation of SXR response elements” value (SXR [1]) was “little response”.
With `CC/C(=C(/CC)c1ccc(O)cc1)c1ccc(O)cc1` [DES, diethylstilbestrol] the “Activation of human SXR by compounds known to induce CYP3A4” value (from here on “Activation of human SXR”) (SXR [1]) was “most potent activators”.
With `CC(=O)[C@H]1CC[C@H]2[C@@H]3CC=C4C[C@@H](O)CC[C@]4(C)[C@H]3CC[C@]12C` [pregnenolone] the “Induction of CYP3A23 promoter reporter with co-transfection of SXR” value (SXR [2]) was “significant induction”, the “Activation … in the absence of SXR” value (endogenous PXR) was “fail to activate or behave as poor activators” and the “Activation of SXR response elements” value (SXR [1]) was “among the best activators”.
With `O=c1c(-c2ccc(O)cc2)coc2cc(O)cc(O)c12` [genistein] the “Activation of human SXR” value (SXR [1]) was “activate”.
For `CC(=O)[C@H]1CC[C@H]2[C@@H]3CCC4=CC(=O)CC[C@]4(C)[C@H]3CC[C@]12C` [progesterone], the “Activation … in the absence of SXR” value (endogenous PXR) was “fail to activate or behave as poor activators”.
`C[C@]12CCC(=O)C=C1CC[C@@H]1[C@@H]2[C@@H](O)C[C@@]2(C)[C@H]1CC[C@]2(O)C(=O)CO` [cortisol] was tested, and the “Activation of SXR response elements” value (SXR [1]) was “little response”.
With `C[C@]12CC[C@@H](O)C[C@@H]1CC[C@@H]1[C@@H]2[C@@H](O)C[C@]2(C)[C@@H](C(=O)CO)CC[C@@H]12` [5α, 5α-tetrahydrocorticosterone] the “Activation of GAL-SXR on tk(MH100)4-luc by corticosterone derivatives” value (SXR [3]) was “effective SXR activators” and the “Activation of hGRα on MTV-luc” value (hGRα) was “slightly active”.
In the case of `CC(=O)S[C@@H]1CC2=CC(=O)CC[C@]2(C)[C@H]2CC[C@@]3(C)[C@@H](CC[C@@]34CCC(=O)O4)[C@H]12` [spironolactone], the “Activation of human SXR” value (SXR [3]) is reported as “activate”.
`C[C@]12CCC(=O)C[C@@H]1CC[C@@H]1[C@@H]2CC[C@]2(C)[C@@H](O)CC[C@@H]12` [dihydrotestosterone] was tested, and the “Activation of SXR in transfection-based assays” value (SXR [3]) was “remarkably effective activators”, the “Activation of SXR response elements” value (SXR [3]) was “among the best activators” and the “Activation of human SXR” value (SXR [3]) was “activate”.
For `CCCCC/C=C/C=C1/C(=O)C=C[C@@H]1C/C=C\CCCC(=O)O` [15d-PGJ2], the “Activation of CYP3A23 promoter reporter by PPARγ ligands in the presence of SXR” value (SXR [2]) was “fail to activate”.
In the case of `C[C@]12C[C@H](O)[C@H]3[C@@H](CCC4=CC(=O)CC[C@@]43C)[C@@H]1CC[C@@H]2C(=O)CO` [corticosterone], the “Activation of human SXR” value (SXR [1]) is reported as “most potent activators”, the “Activation of SXR in transfection-based assays” value (SXR [1]) is reported as “most potent and efficacious activator; also recorded: activated” and the “Activation of SXR response elements” value (SXR [1]) is reported as “among the best activators”.
For `Clc1ccccc1C(c1ccccc1)(c1ccccc1)n1ccnc1` [CTZ, clotrimazole], the “Activation of CYP3A23 promoter reporter with mutated DR-3 element (DR3/M1, DR3/M2)” value (SXR [2]) was “abolished”, the “Inducibility of CYP3A23 promoter reporter with DR-3 replaced by IR-6 element (DR3/IR6)” value (SXR [2]) was “rescueS the inducibility” and the “Induction of liver CYP3A11 expression in Alb-SXR transgenic mice” value (CYP3A11 gene; RIF 5 mg/kg, BRL 20 mg/kg, troglitazone and ciglitazone 150 mg/kg by gavage, CTZ 50 mg/kg, PCN 40 mg/kg i.p.) was “higher level”. For the same compound, the “Induction of liver CYP3A11 expression in wild type / nontransgenic mice” value (CYP3A11 gene; same doses as in transgenic mice) was “moderate level”.
In the case of `O=c1oc2cc(O)ccc2c2oc3cc(O)ccc3c12` [coumestrol], the “Activation of human SXR” value (SXR [1]) is reported as “most potent activators”.
For `C[C@]12C[C@H](O)[C@H]3[C@@H](C[C@@H](O)C4=CC(=O)CC[C@@]43C)[C@@H]1CC[C@@H]2C(=O)CO` [6β-hydroxy corticosterone], the “Activation of hGRα on MTV-luc” value (hGRα) was “slightly active”.
For `Oc1ccc([C@H]2COc3cc(O)ccc3C2)cc1` [equol], the “Activation of human SXR” value (SXR [1]) was “activate”.
